Laboratory results taken from patent US11059828B2, “Disubstituted octahydropyrrolo[3,4-C]pyrroles as orexin receptor modulators” (Janssen Pharmaceutica NV, priority 2009, dated 2021).

Biological target: human orexin-2 receptor (Homo sapiens (Human), UniProt O43614)
Test: Human Orexin 2 Receptor Radioligand Binding Studies ([3H]-EMPA competition)
Settings: HEK293 cells stably expressing human orexin-2 receptor; [3H]-EMPA 5 nM; apparent Ki; read-out: OR 2 Ki

Sequence of human orexin-2 receptor (O43614 whole entry): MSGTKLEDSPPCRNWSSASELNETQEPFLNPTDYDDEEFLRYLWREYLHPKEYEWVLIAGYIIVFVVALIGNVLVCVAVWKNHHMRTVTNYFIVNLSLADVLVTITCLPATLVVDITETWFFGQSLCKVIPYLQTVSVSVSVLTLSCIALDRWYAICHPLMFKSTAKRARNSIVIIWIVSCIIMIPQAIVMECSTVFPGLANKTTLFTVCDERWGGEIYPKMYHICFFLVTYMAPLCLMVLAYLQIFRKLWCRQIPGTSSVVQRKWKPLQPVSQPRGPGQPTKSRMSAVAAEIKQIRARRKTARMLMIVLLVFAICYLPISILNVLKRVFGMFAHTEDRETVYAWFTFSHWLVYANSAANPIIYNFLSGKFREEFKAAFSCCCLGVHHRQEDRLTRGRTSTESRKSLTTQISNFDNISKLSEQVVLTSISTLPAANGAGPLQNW

Q: `O=C(c1cccc(F)c1-n1nccn1)N1CC2CN(c3cnc4cc(F)c(F)cc4n3)CC2C1` (stereo not shown) [Example 244, (5-(6,7-Difluoroquinoxalin-2-yl)hexahydropyrrolo[3,4-c]pyrrol-2(1H)-yl)(3-fluoro-2-(2H-1,2,3-triazol-2-yl)phenyl)methanone] was tested. Which Ki did it give?
A: 0.018 µM
